Like-named read-outs stand apart in the source and are kept apart here.
Legend:
[1] = system: TG2:gluten complexes uptake by TG2-specific B cells (A20, BCR 679-14-E06); assay: Inhibition by primary amines of TG2:gluten complex uptake by TG2-specific B cells, flow cytometry; type: cell-based, Murine A20 B lymphoma; recombinant human TG2; conditions: for IC50: B-cell
Source text: (§1) Murine A20 B lymphoma cells engineered to express either the celiac patient‐derived TG2‐specific BCR 679‐14‐E06 or the non‐TG2‐specific BCR 693‐2‐F02 as human IgD are previously described. For B‐cell/T‐cell collaboration assays, we used A20 BCR transfectants also transduced to express HLA‐DQ2.5 [27]. Murine BW58α^–β^– cells were retrovirally transduced to express human CD4 as well as the celiac patient‐derived gluten‐specific TCR from a DQ2.5‐glia‐γ1‐reactive T‐cell clone (TCC 4.32) as previously described. The generation of TCR transfectants expressing DQ2.5‐glia‐α2‐reactive TCR (TCC 364.14) and DQ2.5‐glia‐ω2‐reactive TCR (clone 737.30) have been described previously.
B‐cell uptake of gluten peptides was measured essentially as previously described. The following 9‐mer peptides were compared: FITC‐α2, FITC‐ω2, FITC‐γ1, and FITC‐γ3. In brief, A20 cells (300 000/well) expressing TG2‐specific (679‐14‐E06) or non‐TG2 specific BCR (693‐2‐F02) were incubated with recombinant TG2 (final 3 µg/mL), 5 µM FITC peptide, and 2 mM CaCl2 in RPMI at a final volume of 50 µL. Following incubation at 37°C, the TG2 enzymatic activity was quenched by the addition of 100 µL 2 mM EDTA/RPMI at specific timepoints. Cells were washed, fixed in 2% methanol‐free formaldehyde (Invitrogen), resuspended in 2% fetal calf serum (FCS)/PBS, and analyzed by flow cytometry (Attune NxT Flow Cytometer, Thermo Scientific). For each peptide, a delta MFI was calculated by subtracting MFI from non‐TG2 specific A20 cell (unspecific binding) from MFI of TG2‐specific A20 cells. Delta MFI was normalized for each experiment by dividing by the highest delta value per experiment. To assess the contribution and uptake of isopeptide‐linked TG2:gluten complexes, TG2 (3 µg/mL) and FITC‐labelled peptides (5 µM) were preincubated in RPMI with 2 mM CaCl2 at 37°C for 30 min before addition of A20 cells followed by 30 min incubation at 37°C. To examine the effect of TG2 secondary substrates on peptide uptake, the primary amines spermine (Sigma–Aldrich) and biotinylated cadaverine (5‐biotinamido‐pentylamine; 5‐BP, Pierce) were added to the reaction mixture (0.1–1000 µM final concentration), followed by 10 min incubation at 37°C and flow cytometry analysis. The dose‐response curve fitting to find IC50 was done using the “[Inhibitor] vs. response” equation in GraphPad Prism 8.3.0. Of note, the presence of Lysine HCl in RPMI medium represents an experimental constant in our assays that is not accounted for when calculating the competitive effect of amine.

[2] = system: TCR-transfectant cells specific for DQ2.5-glia-ω2; assay: Inhibition by primary amines of activation of DQ2.5-glia-ω2-specific T cells by TG2-specific B cells, IL-2 ELISA; type: cell-based; conditions: for IC50: 5 µM N-ω-gliadin 34-mer, TG2, CaCl2, amine 0-1000 µM, IL-2 ELISA
Source text: as §1
The B‐cell/T‐cell collaboration assays were set up as previously described. To compare the uptake and presentation of different gluten peptides to T cells, A20 cells (5 mill/mL) expressing the TG2‐specific BCR (679‐14‐E06) and HLA DQ2.5 were incubated with recombinant TG2 (final 3 µg/mL) and varying amounts of N‐α‐gliadin 20‐mer, N‐ω‐gliadin 19‐mer, or N‐γ‐gliadin 21‐mer in RPMI supplemented with 2 mM CaCl2. After a 30 min incubation at 37°C the cells were washed with 1% FCS/RPMI and resuspended in 5% FCS/RPMI to give a final 1.5 million cells/mL (150 000/well) followed by 2 h incubation at 37°C. Next, TCR‐transfectant cells specific for either DQ2.5‐glia‐α2, DQ2.5‐glia‐ω2, or DQ2.5‐glia‐γ1 were added (25 000/well), followed by overnight incubation at 37°C. The next day, IL‐2 concentration was measured in the culture supernatant by ELISA as previously described. The responsiveness of different TCR transfectants was assessed in the same way, but without the 30 min incubation with TG2, and using the synthetic deamidated peptides (D‐α‐gliadin 20‐mer, D‐ω‐gliadin 17‐mer, and D‐γ‐gliadin 21‐mer). To assess how TG2 secondary substrate affects peptide uptake and presentation to T cells, TG2‐specific A20 cells expressing DQ2.5 were incubated with TG2, CaCl2, 5 µM N‐ω‐gliadin 34‐mer, or 5 µM N‐α‐gliadin 33‐mer in the presence of primary amines at increasing concentrations (0‐1000 µM), before the addition of TCR‐transfectant cells specific for the DQ2.5‐glia‐α2 or DQ2.5‐glia‐ω2 epitopes. The dose‐response curve fitting to find IC50 was done using the “[Inhibitor] vs. response” equation in GraphPad Prism 8.3.0. To examine whether primary amines directly affect the B cells, TG2‐specific A20 cell expressing DQ2.5 were incubated with primary amines for 30 min and washed, before addition of 2 µM D‐ω‐gliadin 34‐mer, followed by incubation with DQ2.5‐glia‐ω2 TCR transfectants.

[3] = logIC50, inhibition of FITC-α2 uptake, Figure 4
[4] = logIC50, inhibition of FITC-α2 uptake, mean
[5] = logIC50, inhibition of FITC-α2 uptake, replicate Figure S4 A
[6] = logIC50, inhibition of FITC-α2 uptake, replicate Figure S4 B
[7] = logIC50, inhibition of FITC-ω2 uptake, Figure 4
[8] = logIC50, inhibition of FITC-ω2 uptake, mean
[9] = logIC50, inhibition of FITC-ω2 uptake, replicate Figure S4 A
[10] = logIC50, inhibition of FITC-ω2 uptake, replicate Figure S4 B
[11] = DQ2.5-glia-ω2, replicate Figure S5A
[12] = DQ2.5-glia-ω2, replicate Figure S5B
[13] = logIC50, DQ2.5-glia-ω2, Figure 5
[14] = logIC50, DQ2.5-glia-ω2, replicate Figure S5A

**Q.** Which results are given for `NCCCCCNC(=O)CCCC[C@@H]1SC[C@@H]2NC(=O)N[C@@H]21` [5-BP, 5‐biotinamido‐pentylamine]?
**A.** IC50 ([1]; 10 min, inhibition of FITC-α2 (5 µM) uptake, TG2 3 µg/mL, 2 mM CaCl2, RPMI, 37°C 10 min, Figure 4, read-out: IC50): 22.7 µM; IC50 ([1]; 10 min, inhibition of FITC-α2 (5 µM) uptake, TG2 3 µg/mL, 2 mM CaCl2, RPMI, 37°C 10 min, mean, read-out: IC50): 42 µM; IC50 ([1]; 10 min, inhibition of FITC-α2 (5 µM) uptake, TG2 3 µg/mL, 2 mM CaCl2, RPMI, 37°C 10 min, replicate Figure S4 A, read-out: IC50): 57.9 µM; IC50 ([1]; 10 min, inhibition of FITC-α2 (5 µM) uptake, TG2 3 µg/mL, 2 mM CaCl2, RPMI, 37°C 10 min, replicate Figure S4 B, read-out: IC50): 45.4 µM; IC50 ([1]; 10 min, inhibition of FITC-ω2 (5 µM) uptake, TG2 3 µg/mL, 2 mM CaCl2, RPMI, 37°C 10 min, Figure 4, read-out: IC50): 20.7 µM; IC50 ([1]; 10 min, inhibition of FITC-ω2 (5 µM) uptake, TG2 3 µg/mL, 2 mM CaCl2, RPMI, 37°C 10 min, mean (spermine: Figure S4 B not included), read-out: IC50): 72 µM; IC50 ([1]; 10 min, inhibition of FITC-ω2 (5 µM) uptake, TG2 3 µg/mL, 2 mM CaCl2, RPMI, 37°C 10 min, replicate Figure S4 A, read-out: IC50): 130 µM; IC50 ([1]; 10 min, inhibition of FITC-ω2 (5 µM) uptake, TG2 3 µg/mL, 2 mM CaCl2, RPMI, 37°C 10 min, replicate Figure S4 B (for spermine not included in the mean), read-out: IC50): 65.6 µM; IC50 ([1]; FITC 9-mer native gluten peptides, average IC50 values, Table S1, read-out: IC50, inhibition of FITC-9-mer peptide uptake (average values)): 26 to 72 µM; logIC50 ([1]; inhibition of FITC-α2 uptake, Figure 4): 1.36; logIC50 ([1]; inhibition of FITC-α2 uptake, mean): 1.59; logIC50 ([1]; inhibition of FITC-α2 uptake, replicate Figure S4 B): 1.66; logIC50 ([1]; inhibition of FITC-ω2 uptake, Figure 4): 1.32; logIC50 ([1]; inhibition of FITC-ω2 uptake, mean): 1.75; logIC50 ([1]; inhibition of FITC-ω2 uptake, replicate Figure S4 A): 2.11; logIC50 ([1]; inhibition of FITC-ω2 uptake, replicate Figure S4 B): 1.82; log 95% CI lower limit [1, 3]: 1.04; log 95% CI upper limit [1, 3]: 1.71; log 95% CI lower limit [1, 4]: 1.35; log 95% CI upper limit [1, 4]: 1.85; log 95% CI lower limit [1, 5]: 1.52; log 95% CI upper limit [1, 5]: 2.00; log 95% CI lower limit [1, 6]: 1.50; log 95% CI upper limit [1, 6]: 1.82; log 95% CI lower limit [1, 7]: 1.09; log 95% CI upper limit [1, 7]: 1.57; log 95% CI lower limit [1, 8]: 1.48; log 95% CI upper limit [1, 8]: 2.03; log 95% CI lower limit [1, 9]: 1.86; log 95% CI upper limit [1, 9]: 2.38; log 95% CI lower limit [1, 10]: 1.50; log 95% CI upper limit [1, 10]: 2.14; IC50 ([2]; DQ2.5-glia-ω2, Figure 5): 60.7 µM; IC50 ([2]; DQ2.5-glia-ω2, mean): 27 µM; IC50 [2, 11]: 13.6 µM; IC50 [2, 12]: 6.79 µM; logIC50 ([2]; DQ2.5-glia-ω2, Figure 5): 1.78; logIC50 ([2]; DQ2.5-glia-ω2, mean): 1.25; logIC50 [2, 11]: 1.13; logIC50 [2, 12]: 0.832; log 95% CI lower limit [2, 13]: 1.52; log 95% CI upper limit [2, 13]: 2.04; log 95% CI lower limit ([2]; logIC50, DQ2.5-glia-ω2, mean): 1.23; log 95% CI upper limit ([2]; logIC50, DQ2.5-glia-ω2, mean): 1.57; log 95% CI lower limit [2, 14]: 0.940; log 95% CI upper limit [2, 14]: 1.32; log 95% CI upper limit ([2]; logIC50, DQ2.5-glia-ω2, replicate Figure S5B): 1.36

— article PMC9545004, “Transglutaminase 2 affinity and enzyme‐substrate intermediate stability as determining factors for T‐cell responses to gluten peptides in celiac disease” (European Journal of Immunology, 2022)
